Reference: US20220033397A1, “PHARMACEUTICAL COMPOUNDS AND THEIR USE AS INHIBITORS OF UBIQUITIN SPECIFIC PROTEASE 19 (USP19)” (ALMAC DISCOVERY LIMITED, priority 2018, published 2022)

Target: T1, Full-length USP19 (Homo sapiens, UniProt O94966)
T1 construct: Full-length USP19 was purchased from Boston Biochem (E-576); purchased Boston Biochem E-576
T1 sequence (O94966 1-1318): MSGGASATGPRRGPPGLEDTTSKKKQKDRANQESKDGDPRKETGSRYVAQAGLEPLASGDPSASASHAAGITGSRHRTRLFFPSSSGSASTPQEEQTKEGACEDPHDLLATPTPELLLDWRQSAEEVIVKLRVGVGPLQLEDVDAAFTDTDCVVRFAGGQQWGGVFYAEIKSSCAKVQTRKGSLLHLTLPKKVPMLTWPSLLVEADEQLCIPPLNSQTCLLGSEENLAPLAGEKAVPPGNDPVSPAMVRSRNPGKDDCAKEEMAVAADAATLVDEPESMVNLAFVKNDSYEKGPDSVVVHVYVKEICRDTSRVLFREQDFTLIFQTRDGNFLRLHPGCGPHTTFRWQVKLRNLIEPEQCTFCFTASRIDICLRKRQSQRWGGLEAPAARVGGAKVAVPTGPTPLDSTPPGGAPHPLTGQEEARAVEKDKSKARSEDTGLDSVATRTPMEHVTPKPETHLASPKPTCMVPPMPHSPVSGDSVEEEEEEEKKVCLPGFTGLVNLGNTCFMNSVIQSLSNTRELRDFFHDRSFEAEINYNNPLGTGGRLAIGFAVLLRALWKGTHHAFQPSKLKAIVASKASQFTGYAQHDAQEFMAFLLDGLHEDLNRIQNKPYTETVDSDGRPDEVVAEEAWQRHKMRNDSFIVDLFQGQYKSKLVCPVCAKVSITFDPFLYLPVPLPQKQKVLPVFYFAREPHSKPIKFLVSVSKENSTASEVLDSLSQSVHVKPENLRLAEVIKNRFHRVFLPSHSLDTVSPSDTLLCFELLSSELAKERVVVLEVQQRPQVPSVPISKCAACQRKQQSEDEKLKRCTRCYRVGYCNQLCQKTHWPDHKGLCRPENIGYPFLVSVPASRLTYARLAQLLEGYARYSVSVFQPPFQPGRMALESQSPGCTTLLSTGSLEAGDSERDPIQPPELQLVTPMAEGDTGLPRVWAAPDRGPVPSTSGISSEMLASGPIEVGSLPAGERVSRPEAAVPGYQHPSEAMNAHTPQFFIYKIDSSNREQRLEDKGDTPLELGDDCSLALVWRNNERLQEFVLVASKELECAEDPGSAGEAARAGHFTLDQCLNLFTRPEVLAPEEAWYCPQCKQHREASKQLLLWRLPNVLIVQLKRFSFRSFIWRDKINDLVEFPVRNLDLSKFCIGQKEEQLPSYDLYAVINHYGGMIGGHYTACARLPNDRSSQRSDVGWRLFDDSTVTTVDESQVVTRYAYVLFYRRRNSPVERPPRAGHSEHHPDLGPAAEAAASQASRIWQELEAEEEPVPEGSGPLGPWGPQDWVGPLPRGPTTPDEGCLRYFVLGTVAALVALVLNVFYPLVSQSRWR
Experiment: USP19 fluorescence polarisation (FP) homogeneous assay with Ubiquitin-Lys-TAMRA substrate
Format: biochemical
Settings: 2.5 nM USP19, 30 min pre-incubation, average of at least two duplicate experiments
In short: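 Full-length USP19 preincubated 30 min at RT with inhibitor (200 μM to 2 μM series, 8–18 points) before adding 500 nM Ubiquitin-Lys-TAMRA substrate.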

SMILES | IC50 [µM]
O=C(N1CCC(O)(Cn2cnc3c(cnn3C3CC3)c2=O)C2(CCCC2)C1)N1CCNC[C@H]1c1ccccc1 (stereo partly drawn) [Example 183, 1-Cyclopropyl-5-((10-hydroxy-7-((R)-2-phenylpiperazine-1-carbonyl)-7-azaspiro[4.5]decan-10-yl)methyl)-1,5-dihydro-4H-pyrazolo[3,4-d]pyrimidin-4-one] | < 0.5
CSc1ncc2c(=O)n(C[C@]3(O)CCN(C(=O)N4CCNC[C@H]4c4ccccc4)CC34CCCC4)ccc2n1 [Example 184, 6-(((S)-10-Hydroxy-7-((R)-2-phenylpiperazine-1-carbonyl)-7-azaspiro[4.5]decan-10-yl)methyl)-2-(methylthio)pyrido[4,3-d]pyrimidin-5(6H)-one] | < 0.5
O=C(N1CC[C@@](O)(Cn2ccc3ncncc3c2=O)C2(CCCC2)C1)N1CCNC[C@H]1c1ccccc1 [Example 185, 6-(((S)-10-Hydroxy-7-((R)-2-phenylpiperazine-1-carbonyl)-7-azaspiro[4.5]decan-10-yl)methyl)pyrido[4,3-d]pyrimidin-5(6H)-one] | < 0.5
CSc1cn(CC2(O)CCN(C(=O)N3CCNC[C@H]3c3ccccc3)CC23CCCC3)c(=O)cc1-c1ccccc1 (stereo partly drawn) [Example 186, 1-((10-Hydroxy-7-((R)-2-phenylpiperazine-1-carbonyl)-7-azaspiro[4.5]decan-10-yl)methyl)-5-(methylthio)-4-phenylpyridin-2(1H)-one] | < 0.5
C[S+]([O-])c1cn(CC2(O)CCN(C(=O)N3CCNC[C@H]3c3ccccc3)CC23CCCC3)c(=O)cc1-c1ccccc1 (stereo partly drawn) [Example 187, 1-((10-Hydroxy-7-((R)-2-phenylpiperazine-1-carbonyl)-7-azaspiro[4.5]decan-10-yl)methyl)-5-(methylsulfinyl)-4-phenylpyridin-2(1H)-one] | < 0.5
CS(=O)(=O)c1cn(CC2(O)CCN(C(=O)N3CCNC[C@H]3c3ccccc3)CC23CCCC3)c(=O)cc1-c1ccccc1 (stereo partly drawn) [Example 188, 1-((10-Hydroxy-7-((R)-2-phenylpiperazine-1-carbonyl)-7-azaspiro[4.5]decan-10-yl)methyl)-5-(methylsulfonyl)-4-phenylpyridin-2(1H)-one] | < 0.5
CS(=N)(=O)c1cn(CC2(O)CCN(C(=O)N3CCNC[C@H]3c3ccccc3)CC23CCCC3)c(=O)cc1-c1ccccc1 (stereo partly drawn) [Example 189, 1-((10-Hydroxy-7-((R)-2-phenylpiperazine-1-carbonyl)-7-azaspiro[4.5]decan-10-yl)methyl)-5-(S-methylsulfonimidoyl)-4-phenylpyridin-2(1H)-one] | < 0.5
CS(=N)(=O)c1cn(CC2(O)CCN(C(=O)N3CCOC[C@H]3c3ccccc3)CC23CCCC3)c(=O)cc1-c1ccccc1 (stereo partly drawn) [Example 190, 1-((10-Hydroxy-7-((R)-3-phenylmorpholine-4-carbonyl)-7-azaspiro[4.5]decan-10-yl)methyl)-5-(S-methylsulfonimidoyl)-4-phenylpyridin-2(1H)-one] | < 0.5
CS(C)(=O)=Nc1cn(CC2(O)CCN(C(=O)N3CCNC[C@H]3c3ccccc3)CC23CCCC3)c(=O)cc1-c1ccccc1 (stereo partly drawn) [Example 191, 5-((Dimethyl(oxo)-λ^6-sulfaneylidene)amino)-1-((10-hydroxy-7-((R)-2-phenylpiperazine-1-carbonyl)-7-azaspiro[4.5]decan-10-yl)methyl)-4-phenylpyridin-2(1H)-one] | < 0.5
O=C(NCc1ccccc1)N1CCC(O)(Cn2ccc(-c3ccccc3)cc2=O)C2(CCCC2)C1 (stereo not shown) [Example 192, N-Benzyl-10-hydroxy-10-((2-oxo-4-phenylpyridin-1(2H)-yl)methyl)-7-azaspiro[4.5]decane-7-carboxamide] | < 0.5
O=C(NCc1ccccc1)N1CCC(O)(Cn2cnc(-c3ccccc3)cc2=O)C2(CCCC2)C1 (stereo not shown) [Example 193, N-Benzyl-10-hydroxy-10-((6-oxo-4-phenylpyrimidin-1(6H)-yl)methyl)-7-azaspiro[4.5]decane-7-carboxamide] | < 0.5

Now from value to compound:

IC50 [µM] | SMILES
50 to 250 | O=C(NCc1ccccc1)N1CCC(O)(Cn2cnc(-c3ccccc3F)cc2=O)C2(CC2)C1 (stereo not shown) [Example 194, N-Benzyl-8-((4-(2-fluorophenyl)-6-oxopyrimidin-1(6H)-yl)methyl)-8-hydroxy-5-azaspiro[2.5]octane-5-carboxamide]
5 to 50 | CC1(C)CN(C(=O)NCc2ccccc2)CCC1(O)Cn1cnc(-c2ccccc2F)cc1=O (stereo not shown) [Example 195, N-Benzyl-4-((4-(2-fluorophenyl)-6-oxopyrimidin-1(6H)-yl)methyl)-4-hydroxy-3,3-dimethylpiperidine-1-carboxamide]
5 to 50 | O=C(NCC(F)(F)F)N1CCC(O)(Cn2cnc(-c3ccccc3)cc2=O)C2(CCCC2)C1 (stereo not shown) [Example 196, 10-Hydroxy-10-((6-oxo-4-phenylpyrimidin-1(6H)-yl)methyl)-N-(2,2,2-trifluoroethyl)-7-azaspiro[4.5]decane-7-carboxamide]
50 to 250 | O=C(NCc1ccccn1)N1CCC(O)(Cn2cnc(-c3ccccc3)cc2=O)C2(CCCC2)C1 (stereo not shown) [Example 197, 10-Hydroxy-10-((6-oxo-4-phenylpyrimidin-1(6H)-yl)methyl)-N-(pyridin-2-ylmethyl)-7-azaspiro[4.5]decane-7-carboxamide]
50 to 250 | O=C(NCc1ccccc1)N1CCC(O)(Cn2cnc(Cl)cc2=O)C2(CCCC2)C1 (stereo not shown) [Example 198, N-Benzyl-10-((4-chloro-6-oxopyrimidin-1(6H)-yl)methyl)-10-hydroxy-7-azaspiro[4.5]decane-7-carboxamide]
50 to 250 | O=C(NCc1cccnc1)N1CCC(O)(Cn2cnc(-c3ccccc3)cc2=O)C2(CCCC2)C1 (stereo not shown) [Example 199, 10-Hydroxy-10-((6-oxo-4-phenylpyrimidin-1(6H)-yl)methyl)-N-(pyridin-3-ylmethyl)-7-azaspiro[4.5]decane-7-carboxamide]
5 to 50 | O=C(NCc1ccccc1)N1CCC(O)(Cn2cnc(-c3cccnc3)cc2=O)C2(CCCC2)C1 (stereo not shown) [Example 200, N-Benzyl-10-hydroxy-10-((6-oxo-4-(pyridin-3-yl)pyrimidin-1(6H)-yl)methyl)-7-azaspiro[4.5]decane-7-carboxamide]
0.5 to 5 | O=C(NCc1ccccc1)N1CCC(O)(Cn2cnc(-c3ccncc3)cc2=O)C2(CCCC2)C1 (stereo not shown) [Example 201, N-Benzyl-10-hydroxy-10-((6-oxo-4-(pyridin-4-yl)pyrimidin-1(6H)-yl)methyl)-7-azaspiro[4.5]decane-7-carboxamide]
5 to 50 | O=C(NCc1ccccc1)N1CCC(O)(Cn2cnc(N3CCCC3)cc2=O)C2(CCCC2)C1 (stereo not shown) [Example 202, N-Benzyl-10-hydroxy-10-((6-oxo-4-(pyrrolidin-1-yl)pyrimidin-1(6H)-yl)methyl)-7-azaspiro[4.5]decane-7-carboxamide]
50 to 250 | O=C(NCc1ccccc1)N1CCC(O)(Cn2cnc(N3CCOCC3)cc2=O)C2(CCCC2)C1 (stereo not shown) [Example 203, N-Benzyl-10-hydroxy-10-((4-morpholino-6-oxopyrimidin-1(6H)-yl)methyl)-7-azaspiro[4.5]decane-7-carboxamide]
5 to 50 | Cn1cc(-c2cc(=O)n(CC3(O)CCN(C(=O)NCc4ccccc4)CC34CCCC4)cn2)cn1 (stereo not shown) [Example 204, N-Benzyl-10-hydroxy-10-((4-(1-methyl-1H-pyrazol-4-yl)-6-oxopyrimidin-1(6H)-yl)methyl)-7-azaspiro[4.5]decane-7-carboxamide]
